The source of these data is US9414598B2, “Protecting wood with stabilized boron complexes” (priority 2006, dated 2016).

For data set [1] the following is noted: for Mean values of the initial boron retention: before leaching, (standard deviations); for Mean of boron retained in wood (std. dev): mean of three samples. As for the experimental part:
Accelerated leaching tests were performed according to AWPA E11-97 (AWPA, 2003). Four Southern yellow pine (Pinus sp.) samples were leached, each in its own leaching flask. At the end of each leaching period, the leachate was collected and the samples were air dried for two weeks. The amount of boron retained in the wood was determined by inductive coupled plasma (ICP) spectrometry after boron was extracted with hydrochloric acid from the ground wood.

For the next data set, the system named is White rot. The settings on record: for % mass loss (std. dev): White rot, 16 weeks decay. As for the experimental part:
(§1) Decay tests were conducted on wood blocks, both leached and unleached. Samples were halved, with one group subjected to weathering and the other group maintained unweathered. Both sets of samples were subjected to a soil block culture test according to the AWPA E10-01 method. For each block, the percentage of mass loss was determined. These samples were allowed to decay for 12 weeks for brown rot decay and for 16 weeks for white rot decay.

A further data set deals with Brown rot. The settings on record: 12 weeks decay. As for the experimental part:
as §1

Like-named read-outs stand apart in the source and are kept apart here. Marks after values point to notes of the source that are not given here.

Text for Coptotermes formosanus: The wood cubes also were subjected to a termite mortality test (Coptotermes formosanus).

With `OB(O)O` [Boric acid only, Boric acid], in the data set with Coptotermes formosanus (in vivo), the “Termite mortality (%)” value was 4.3%. For the same molecule, the “protection against termites (in words)” value in the data set with Coptotermes formosanus (treated wood cubes, boron-CA-SS after leaching) is “adequate protection against termites”. The “Mean values of the initial boron retention” value in data set [1] (Southern yellow pine cubes, samples for Leaching test) is 2075.0^a (2.19)^b ppm; in data set [1] (samples for Brown rot test), 2227.31 (3.27) ppm; in data set [1] (samples for White rot test) it was 2225.43 (1.27) ppm. In addition, the “Mean of boron retained in wood (std. dev)” value is reported as 2075.0 (80.18) ppm in data set [1] (leaching duration 0 (Not unleached)); 1005.00 (125.2) ppm in data set [1] (leaching duration 6 hours); 737.13 (40.85) ppm in data set [1] (leaching duration 24 hours); 99.32 (17.84) ppm in data set [1] (leaching duration 2 days); 25.37 (2.81) ppm in data set [1] (leaching duration 4 days); 2.908 (0.61) ppm in data set [1] (leaching duration 6 days). The “Mean of boron retained in wood (std. dev)” value in data set [1] (leaching duration 8 days) was 2.941 (0.83) ppm; in data set [1] (leaching duration 10 days), 2.89 (0.79) ppm; in data set [1] (leaching duration 12 days), 2.79 (0.53) ppm; in data set [1] (leaching duration 14 days), 2.8 (0.82) ppm. In addition, the “loss of boron on leaching (in words)” value in data set [1] (leaching of treated wood cubes) is reported as “lost most of their boron within 6 hours”. Also, the “% mass loss (std. dev)” value was 2.51 (0.51) % in the data set on White rot (Not leached samples), 16.59 (2.19) % in the data set with White rot (leached samples), 3.21 (0.22) % with Brown rot (Not leached samples) and 18.88 (2.30) % in the data set on Brown rot (leached samples). The “decay resistance (in words)” value in the data set on White rot (leached samples, summary of Table 4 for white rot and brown rot) is reported as “no significant decay resistance”.
